Among the test systems are OVCAR-4 ovarian; SNB-19 CNS; HT29 colon; A498 renal; HCC-2998 colon; SK-MEL-28 melanoma; CCRF-CEM leukemia; M14 melanoma; BT-549 breast; SR leukemia; NCI-H522 lung; DU-145 prostate; MDA-N; PC-3 prostate; KM12 colon; HL-60(TB) leukemia.
What all share (test): growth of human tumour cells (NCI), 48 h

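Step 1: Grow cells in 96-well plates. Step 2: Expose to compound for 48 hours at 5 concentrations. Step 3: Interpolate endpoints linearly; if unreached, use highest concentration. GI50: concentration for 50% inhibition of growth. TGI marks complete inhibition of growth.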

For `S=c1ssc2c3ssc(=S)c3n(Cc3ccccc3)c12`, the TGI with OVCAR-4 ovarian, in the assay with SNB-19 CNS, in the assay on HT29 colon, in the assay on A498 renal, with HCC-2998 colon and in the assay with SK-MEL-28 melanoma was greater than 100 µM each time. Moreover, the TGI was 58.2 µM in the assay with CCRF-CEM leukemia; greater than 100 µM with M14 melanoma; greater than 100 µM in the assay on BT-549 breast; greater than 100 µM in the assay with SR leukemia; greater than 100 µM with NCI-H522 lung; greater than 100 µM in the assay on DU-145 prostate. The TGI in the assay with MDA-N, in the assay on PC-3 prostate, in the assay on KM12 colon and in the assay on HL-60(TB) leukemia was greater than 100 µM each time.
Regarding `CN(C)c1nc(N(C)C)nc(N(C)C)n1`, the TGI in the assay with OVCAR-4 ovarian was greater than 143 µM; in the assay on SNB-19 CNS, greater than 150 µM; in the assay with HT29 colon, greater than 150 µM; with A498 renal, greater than 150 µM; with HCC-2998 colon it was greater than 123 µM; in the assay with SK-MEL-28 melanoma, greater than 150 µM. The TGI in the assay with CCRF-CEM leukemia, in the assay on M14 melanoma, in the assay on BT-549 breast, in the assay on SR leukemia, in the assay on NCI-H522 lung and with DU-145 prostate was greater than 150 µM throughout. The TGI in the assay with MDA-N is greater than 150 µM; in the assay on PC-3 prostate it was greater than 150 µM; in the assay on KM12 colon, greater than 150 µM; with HL-60(TB) leukemia, greater than 148 µM.
With `CSc1ccc2c(cc1=O)[C@@H](NC(C)=O)CCc1cc(O)c(O)c(O)c1-2`, the TGI in the assay on OVCAR-4 ovarian is 35.5 µM; with SNB-19 CNS, 78.9 µM; with HT29 colon, 29.2 µM; in the assay with A498 renal it was greater than 100 µM; in the assay with HCC-2998 colon, 50.5 µM; in the assay with SK-MEL-28 melanoma, greater than 100 µM. The TGI in the assay on CCRF-CEM leukemia was greater than 100 µM; with M14 melanoma, 36 µM; in the assay on BT-549 breast, 56.9 µM; with SR leukemia it was greater than 100 µM; in the assay with NCI-H522 lung, 39.3 µM; in the assay with DU-145 prostate, greater than 100 µM. Besides, the TGI was 61.1 µM in the assay with MDA-N, greater than 100 µM in the assay on PC-3 prostate, 41.4 µM in the assay with KM12 colon and greater than 100 µM with HL-60(TB) leukemia.
Consider `O=C(c1ccccc1)c1ccc(C(c2c(O)c3ccccc3oc2=O)c2c(O)c3ccccc3oc2=O)cc1`, for which the TGI is 82.9 µM with OVCAR-4 ovarian; 55.8 µM in the assay with SNB-19 CNS; greater than 63.5 µM in the assay on HT29 colon; 62.6 µM with A498 renal; 50.4 µM with HCC-2998 colon; greater than 73.3 µM with SK-MEL-28 melanoma. Besides, the TGI in the assay on CCRF-CEM leukemia is greater than 81.2 µM; in the assay on M14 melanoma, 63.3 µM; with BT-549 breast, 48.9 µM; in the assay with SR leukemia it was 59.3 µM; in the assay on NCI-H522 lung it was 43 µM; with DU-145 prostate, greater than 85.7 µM. The TGI was greater than 71.7 µM in the assay with MDA-N, greater than 74.5 µM with PC-3 prostate, 37.1 µM in the assay with KM12 colon and greater than 100 µM in the assay on HL-60(TB) leukemia.
Consider `Brc1cccc(/C=C/CN2CCN(CCOC(c3ccccc3)c3ccccc3)CC2)c1`, for which the TGI in the assay with OVCAR-4 ovarian came out at 25.2 µM; in the assay with SNB-19 CNS it was 37.7 µM; with HT29 colon, 24.2 µM; with A498 renal, 32 µM; in the assay with HCC-2998 colon, 21.3 µM; in the assay with SK-MEL-28 melanoma it was 37.5 µM. Besides, the TGI stood at 29.5 µM with CCRF-CEM leukemia; 27.1 µM in the assay with M14 melanoma; 31.1 µM in the assay on BT-549 breast; 28.3 µM with SR leukemia; 29.3 µM in the assay with NCI-H522 lung; 27.4 µM with DU-145 prostate. Also, the TGI in the assay on MDA-N worked out at 32.9 µM; with PC-3 prostate, 26.5 µM; in the assay with KM12 colon, 31.3 µM; with HL-60(TB) leukemia, 27.9 µM.
Regarding `CSC(SC)=C1CC(=O)Nc2ccccc2C1=O`, the TGI with OVCAR-4 ovarian, in the assay with SNB-19 CNS, in the assay on HT29 colon, with A498 renal, in the assay with HCC-2998 colon and in the assay on SK-MEL-28 melanoma was greater than 100 µM each time. For the same compound, the TGI in the assay with CCRF-CEM leukemia is 52.7 µM; with M14 melanoma it was greater than 100 µM; with BT-549 breast it was greater than 100 µM; in the assay with SR leukemia, greater than 100 µM; in the assay on NCI-H522 lung, greater than 100 µM; with DU-145 prostate, greater than 100 µM. In addition, the TGI in the assay on MDA-N, with PC-3 prostate, in the assay with KM12 colon and in the assay on HL-60(TB) leukemia was greater than 100 µM each time.
On to `COc1ccc(OC)c(C2CCc3nc4nc(N)nc(N)c4cc3C2)c1` (stereo unspecified), for which the TGI in the assay on OVCAR-4 ovarian was 4.14 µM; with SNB-19 CNS, 6.01 µM; with HT29 colon, 10.8 µM; in the assay with A498 renal, 27.5 µM; in the assay on HCC-2998 colon, 3.16 µM; in the assay with SK-MEL-28 melanoma it was 6.34 µM. In addition, the TGI with CCRF-CEM leukemia came out at 9.44 µM; in the assay on M14 melanoma, 3.44 µM; in the assay on BT-549 breast it was 16.6 µM; in the assay with SR leukemia, 7.06 µM; with NCI-H522 lung, 4.94 µM; in the assay with DU-145 prostate it was 17.8 µM. In addition, the TGI in the assay with MDA-N stood at 5.04 µM; with PC-3 prostate it was 11.5 µM; in the assay with KM12 colon it was 5.14 µM; in the assay with HL-60(TB) leukemia, 7.86 µM.
As to `CCOc1c2ccsc2c(OCC)c2ccsc12`, the TGI in the assay on OVCAR-4 ovarian is greater than 100 µM; with SNB-19 CNS it was greater than 100 µM; in the assay on HT29 colon it was greater than 36 µM; with A498 renal, greater than 100 µM; with HCC-2998 colon, greater than 75.5 µM; in the assay on SK-MEL-28 melanoma, greater than 100 µM. For the same compound, the TGI with CCRF-CEM leukemia was greater than 100 µM; in the assay with M14 melanoma, greater than 100 µM; in the assay with BT-549 breast, greater than 100 µM; in the assay with SR leukemia it was greater than 100 µM; in the assay on NCI-H522 lung, greater than 28.9 µM; in the assay on DU-145 prostate it was greater than 100 µM. The TGI is 4.83 µM in the assay on MDA-N, greater than 100 µM in the assay with PC-3 prostate, greater than 100 µM in the assay with KM12 colon and 7.43 µM in the assay with HL-60(TB) leukemia.
Regarding `C/C(=N/NC(=S)Nc1ccccc1Cl)c1ccccn1`, the TGI in the assay on OVCAR-4 ovarian amounted to 14.5 µM; in the assay on SNB-19 CNS, 48.5 µM; in the assay with HT29 colon, 24.7 µM; in the assay on A498 renal, 9.31 µM; in the assay with HCC-2998 colon, 18.1 µM; in the assay with SK-MEL-28 melanoma, 23 µM. The TGI with CCRF-CEM leukemia worked out at 1.1 µM; with M14 melanoma it was 3.42 µM; in the assay with BT-549 breast it was 19.9 µM; in the assay on SR leukemia, 3.22 µM; with NCI-H522 lung, 8.19 µM; in the assay with DU-145 prostate it was 12.8 µM. Moreover, the TGI is 19.7 µM with MDA-N, 27.3 µM in the assay on PC-3 prostate, 18.7 µM in the assay on KM12 colon and less than 0.0305 µM with HL-60(TB) leukemia.
With `Cc1ccc2c(c1)SSSSS2`, the TGI with OVCAR-4 ovarian was 37.2 µM; in the assay with SNB-19 CNS it was 48 µM; in the assay with HT29 colon, 70.6 µM; in the assay with A498 renal it was 35.1 µM; with HCC-2998 colon, 31.6 µM; with SK-MEL-28 melanoma, 65.4 µM. For the same compound, the TGI in the assay on CCRF-CEM leukemia was 17 µM; in the assay on M14 melanoma, 58.6 µM; in the assay with BT-549 breast, 39.1 µM; with SR leukemia, greater than 100 µM; in the assay on NCI-H522 lung, 40.6 µM; with DU-145 prostate, 31.2 µM. In addition, the TGI in the assay with MDA-N was 87.1 µM; with PC-3 prostate it was 57.8 µM; in the assay on KM12 colon, 34 µM; with HL-60(TB) leukemia it was 42.2 µM.
For the compound `Cc1ccc(S(=O)ON2CCC(C(=O)O)(c3ccccc3)CC2)cc1` (stereo unspecified), the TGI in the assay on OVCAR-4 ovarian, in the assay on SNB-19 CNS, in the assay with HT29 colon, in the assay with A498 renal, with HCC-2998 colon and in the assay with SK-MEL-28 melanoma was greater than 100 µM in each case. Besides, the TGI in the assay with CCRF-CEM leukemia, in the assay on M14 melanoma, in the assay with BT-549 breast, in the assay with SR leukemia, in the assay on NCI-H522 lung and in the assay with DU-145 prostate was greater than 100 µM throughout. Also, the TGI with MDA-N, in the assay with PC-3 prostate, in the assay with KM12 colon and in the assay with HL-60(TB) leukemia was greater than 100 µM in each case. The GI50 in the assay with SR leukemia is greater than 100 µM.
Take `Cn1c(=O)oc2cc(C(=O)CSC(=S)N3CCCCCC3)ccc21`: the TGI was greater than 100 µM in the assay with OVCAR-4 ovarian; greater than 100 µM in the assay on SNB-19 CNS; 36.7 µM in the assay with HT29 colon; greater than 100 µM in the assay on A498 renal; greater than 100 µM with HCC-2998 colon; greater than 100 µM in the assay with SK-MEL-28 melanoma. Moreover, the TGI in the assay with CCRF-CEM leukemia, with M14 melanoma, with BT-549 breast, in the assay on SR leukemia, in the assay with NCI-H522 lung and in the assay on DU-145 prostate was greater than 100 µM each time. Moreover, the TGI in the assay on MDA-N, in the assay on PC-3 prostate, with KM12 colon and in the assay with HL-60(TB) leukemia was greater than 100 µM in each case.
For the compound `CC(=O)N=C(N=Nc1c(O)[nH]c2ccc(C)cc12)NC(C)=O`, the TGI with OVCAR-4 ovarian, in the assay on SNB-19 CNS, with HT29 colon, in the assay with A498 renal, with HCC-2998 colon and in the assay on SK-MEL-28 melanoma was greater than 100 µM in each case. Also, the TGI with CCRF-CEM leukemia, in the assay on M14 melanoma, in the assay on BT-549 breast, in the assay with SR leukemia, in the assay on NCI-H522 lung and with DU-145 prostate was greater than 100 µM each time. Also, the TGI in the assay on MDA-N, in the assay with PC-3 prostate, in the assay on KM12 colon and in the assay on HL-60(TB) leukemia was greater than 100 µM throughout.
Regarding `CN1CCCN2CCN(C)CCN(CC1)CC2`, the TGI in the assay with OVCAR-4 ovarian, in the assay on SNB-19 CNS, with HT29 colon, with A498 renal, in the assay with HCC-2998 colon and with SK-MEL-28 melanoma was greater than 100 µM each time. Besides, the TGI in the assay on CCRF-CEM leukemia, in the assay on M14 melanoma, in the assay on BT-549 breast, with SR leukemia, with NCI-H522 lung and with DU-145 prostate was greater than 100 µM throughout. Also, the TGI in the assay on MDA-N, with PC-3 prostate, in the assay with KM12 colon and in the assay with HL-60(TB) leukemia was greater than 100 µM throughout.
Regarding `Clc1ccc(N=C/C=C/Nc2ccc(Cl)cn2)nc1`, the TGI in the assay with OVCAR-4 ovarian is 25.7 µM; in the assay with SNB-19 CNS it was 30.1 µM; in the assay with HT29 colon, 22.1 µM; with A498 renal, 34.7 µM; in the assay with HCC-2998 colon it was 0.922 µM; with SK-MEL-28 melanoma it was 32.9 µM. The TGI with CCRF-CEM leukemia came out at 9.41 µM; in the assay with M14 melanoma, 30.2 µM; in the assay on BT-549 breast it was 31 µM; in the assay on SR leukemia, 6.69 µM; with NCI-H522 lung, 28.4 µM; in the assay with DU-145 prostate, 31.6 µM. Besides, the TGI stood at 28.4 µM with MDA-N, 27.6 µM in the assay with PC-3 prostate, 21 µM in the assay with KM12 colon and 3.91 µM in the assay on HL-60(TB) leukemia.

Source of the values: PubChem BioAssay (NCI).
